Tests used:
human subjects with CLL = assay: Example 1: investigator assessed nodal response in CLL subjects; format: in vivo; conditions: CLL subjects (n=29); 800 mg BID fasting
Text: The sample size was 10-40/arm.

[1] = system: CCL3/MIP1alpha, CCL4/MIP1beta, CCL22/MDC, and TNFalpha; assay: Example 1: plasma chemokine/cytokine levels by Luminex immunoassays; format: in vivo, human; conditions: Days 8 and 29 vs Day 1; CLL subjects (n=20)
Text: FIG. 9 summarizes the inhibition of BCR-mediated chemokine/cytokines after treatment in CLL subjects.

[2] = system: subjects with CLL, FL, lymphoplasmacytoid lymphoma/SLL/marginal zone lymphoma, MCL, or DLBCL; assay: Example 2: phase 2 trial, safety analysis of all treated subjects
Protocol: A phase 2, open-label, single-agent study was completed to evaluate the efficacy, safety, tolerability, and pharmacodynamics of entospletinib in subjects with relapsed or refractory hematologic malignancies.
Treatment with entospletinib was at a dose of 800 mg twice a day over 28-day cycles under fasted conditions. Fasting was defined as no food or liquids other than water for 2 hours pre- and 1 hour post-dose.
Secondary end points included tolerability, objective response rate (ORR), duration of response (DOR), time to response, and lymph node response rate. […] Exploratory end points included plasma drug concentrations and pharmacodynamic biomarkers.
Subjects were allowed to enroll in the study if they had cytopenias due to CLL. Treatment-emergent cytopenias were defined as a cytopenia that worsened in the period from the first dose of study treatment to 30 days after the last dose of study treatment.

CCL3 = assay: Example 2: serum levels of BCR-induced chemokines; format: in vivo, human; conditions: days 8 and 29 of treatment
Text: (§1) A bone marrow biopsy and aspirate were collected for confirmatory purposes for all subjects who achieved a complete response (CR) or to confirm suspected PD based solely upon declines in the platelet count and/or hemoglobin. Pharmacodynamic assessments, including serum cytokines and protein phosphorylation in circulating CLL cells, occurred before starting therapy and at designated time points thereafter.

CCL4 = assay: Example 2: serum levels of BCR-induced chemokines; format: in vivo, human; conditions: days 8 and 29 of treatment
Text: as §1

CCL22 = assay: Example 2: serum chemokine/cytokine levels; format: in vivo, human; conditions: days 8 and 29 of therapy
Text: as §1

[3] = system: tumor necrosis factor alpha (TNF-α); assay: Example 2: serum chemokine/cytokine levels; format: in vivo, human; conditions: days 8 and 29 of therapy
Text: as §1

[4] = system: human subjects with CLL or NHL; assay: Example 1: safety, disposition and adverse events (Safety Data Set);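 also: evaluated subjects had CLL, FL, DLBCL, MCL, LPL, SLL or MZL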
Protocol: Subjects having various hematologic malignancies were evaluated, including subjects with chronic lymphocytic leukemia (CLL), follicular lymphoma (FL), diffuse large B-cell lymphoma (DLBCL), mantle cell lymphoma (MCL), lymphoplasmacytic lymphoma (LPL), small lymphocytic lymphoma (SLL), and marginal zone lymphoma (MZL). The sample size was 10-40/arm.
Alanine aminotransferase (ALT) was also measured in the subjects.

[5] = out of 78 subjects, 800 mg BID fasting

Compound: c1cn2cc(-c3ccc4cn[nH]c4c3)nc(Nc3ccc(N4CCOCC4)cc3)c2n1 [compound of formula I, 6-(1H-indazol-6-yl)-N-(4-morpholinophenyl)imidazo[1,2-a]pyrazin-8-amine]
- overall nodal response rate (human subjects with CLL): 69%
- BCR-mediated chemokine/cytokines, plasma levels [1]: inhibition
- AE leading to study drug discontinuation: fatigue ([2]; N = 145): 3 n
- AE leading to study drug discontinuation: headache ([2]; N = 145): 3 n
- AE leading to study drug discontinuation: increased ALT ([2]; N = 145): 3 n
- AEs resulting in discontinuation, % of all treated subjects ([2]; N = 145): 14.5%
- AEs resulting in dose reduction, % of all treated subjects ([2]; N = 145): 7.6%
- Constipation, Any grade, % ([2]; N = 145): (24.1) %
- Constipation, At least grade 3, % ([2]; N = 145): (1.4) %
- Cough, Any grade, % ([2]; N = 145): (19.3) %
- Cough, At least grade 3, % ([2]; N = 145): (0.7) %
- Decreased appetite, Any grade, % ([2]; N = 145): (24.1) %
- Decreased appetite, At least grade 3, % ([2]; N = 145): (0.7) %
- Diarrhea, Any grade, % ([2]; N = 145): (34.5) %
- Diarrhea, At least grade 3, % ([2]; N = 145): (0.7) %
- Dizziness, Any grade, % ([2]; N = 145): (20.7) %
- Dizziness, At least grade 3, % ([2]; N = 145): (0.7) %
- Fatigue, Any grade, % ([2]; N = 145): (51.7) %
- Fatigue, At least grade 3, % ([2]; N = 145): (6.9) %
- Grade 3 fatigue, % ([2]; N = 145): 6.9%
- Grade 3 fatigue, subjects ([2]; N = 145): 10 subjects
- Headache, Any grade, % ([2]; N = 145): (22.8) %
- Headache, At least grade 3, % ([2]; N = 145): (0.7) %
- Insomnia, Any grade, % ([2]; N = 145): (15.9) %
- Laboratory abnormality: Anemia, Any grade, % ([2]; N = 145): (37.2) %
- Laboratory abnormality: Increased ALT, Any grade, % ([2]; N = 145): (37.2) %
- Laboratory abnormality: Increased ALT, At least grade 3, % ([2]; N = 145): (13.8) %
- Laboratory abnormality: Increased AST, Any grade, % ([2]; N = 145): (33.8) %
- Laboratory abnormality: Increased AST, At least grade 3, % ([2]; N = 145): (12.4) %
- Laboratory abnormality: Neutropenia, Any grade, % ([2]; N = 145): (32.4) %
- Laboratory abnormality: Thrombocytopenia, Any grade, % ([2]; N = 145): (6.9) %
- Laboratory abnormality: Thrombocytopenia, At least grade 3, % ([2]; N = 145): (2.8) %
- Laboratory abnormality: Total bilirubin, Any grade, % ([2]; N = 145): (31.0) %
- Laboratory abnormality: Total bilirubin, At least grade 3, % ([2]; N = 145): (4.1) %
- Nausea, Any grade, % ([2]; N = 145): (40) %
- Nausea, At least grade 3, % ([2]; N = 145): (3.4) %
- Pyrexia, Any grade, % ([2]; N = 145): (21.4) %
- Pyrexia, At least grade 3, % ([2]; N = 145): (2.1) %
- Serious AE: Anemia, % ([2]; N = 145): (2.1) %
- Serious AE: Back pain, % ([2]; N = 145): (2.1) %
- Serious AE: Chest pain, % ([2]; N = 145): (2.1) %
- Serious AE: Dyspnea, % ([2]; N = 145): (3.4) %
- Serious AE: Febrile neutropenia, % ([2]; N = 145): (2.8) %
- Serious AE: Pneumonia, % ([2]; N = 145): (3.4) %
- Serious AE: Pyrexia, % ([2]; N = 145): (2.8) %
- grade 2 rash, % ([2]; N = 145): 1.4%
- grade 3 dyspnea, % ([2]; N = 145): 6.2%
- grade 3 nausea, % ([2]; N = 145): 3.4%
- grade 3 rash, % ([2]; N = 145): 1.4%
- grade 4 rash, % ([2]; N = 145): 0.7%
- subjects with a treatment-emergent AE that led to study drug discontinuation ([2]; N = 145): 15.2%
- subjects with a treatment-emergent, serious AE ([2]; N = 145): 31.0%
- subjects who died while on study, % ([2]; N=145, none attributed by the investigator to entospletinib): 12.4%
- subjects with at least one AE ([2]; all treated subjects N=145): 94.5%
- time to grade 3 or 4 ALT/AST elevation, first quartile ([2]; human, in vivo, 800 mg): 4.1 weeks
- time to grade 3 or 4 ALT/AST elevation, third quartile ([2]; human, in vivo, 800 mg): 6.1 weeks
- subjects with ALT/AST elevation who resumed after interruption without further event, % ([2]; of 21 subjects): 57.1%
- grade 3 or 4 ALT/AST elevations that occurred by 6 weeks ([2]; of 21 subjects with elevations): 10
- Reversible grade 3 or 4 ALT/AST elevations, % ([2]; of 145 subjects): 14.5%
- Reversible grade 3 or 4 ALT/AST elevations, subjects ([2]; of 145 subjects): 21 subjects
- deaths on study due to disease progression ([2]; of eighteen deaths): 13
- tolerability ([2]; phase 2 study): well tolerated
- serum levels of BCR-induced CCL3 (CCL3): Significant reductions
- serum levels of BCR-induced CCL4 (CCL4): Significant reductions
- Serum levels of CCL22 (CCL22): inhibited
- Serum levels of tumor necrosis factor alpha (TNF-α) [3]: inhibited
- Discontinuing study drug: Adverse Events, % ([4]; ALL N = 78): (14.1%)
- Discontinuing study drug: Progressive Disease, % ([4]; ALL N = 78): (19.2%)
- Discontinuing study drug: Related AEs, % ([4]; ALL N = 78): (7.7%)
- Discontinuing study drug: Adverse Events, % ([4]; CLL N = 39): (7.7%)
- Discontinuing study drug: Progressive Disease, % ([4]; CLL N = 39): (10.3%)
- Discontinuing study drug: Related AEs, % ([4]; CLL N = 39): (5.1%)
- Discontinuing study drug: Adverse Events, % ([4]; NHL N = 39): (20.5%)
- Discontinuing study drug: Progressive Disease, % ([4]; NHL N = 39): (28.2%)
- Discontinuing study drug: Related AEs, % ([4]; NHL N = 39): (10.3%)
- Any event, All Grades, % ([4]; Safety Data Set N=78): (93.6) %
- Constipation, All Grades, % ([4]; Safety Data Set N=78): (21.8) %
- Constipation, Grade 1 ([4]; Safety Data Set N=78): 11
- Constipation, Grade 2 ([4]; Safety Data Set N=78): 5
- Constipation, Grade 3 ([4]; Safety Data Set N=78): 1
- Cough, All Grades, % ([4]; Safety Data Set N=78): (14.1) %
- Cough, Grade 1 ([4]; Safety Data Set N=78): 9
- Cough, Grade 2 ([4]; Safety Data Set N=78): 1
- Cough, Grade 3 ([4]; Safety Data Set N=78): 1
- Decreased appetite, All Grades, % ([4]; Safety Data Set N=78): (20.5) %
- Decreased appetite, Grade 1 ([4]; Safety Data Set N=78): 10
- Decreased appetite, Grade 2 ([4]; Safety Data Set N=78): 6
- Diarrhea, All Grades, % ([4]; Safety Data Set N=78): (28.2) %
- Diarrhea, Grade 1 ([4]; Safety Data Set N=78): 20
- Diarrhea, Grade 2 ([4]; Safety Data Set N=78): 2
- Dizziness, All Grades, % ([4]; Safety Data Set N=78): (17.9) %
- Dizziness, Grade 1 ([4]; Safety Data Set N=78): 14
- Dyspepsia, All Grades, % ([4]; Safety Data Set N=78): (10.3) %
- Dyspepsia, Grade 1 ([4]; Safety Data Set N=78): 3
- Dyspepsia, Grade 2 ([4]; Safety Data Set N=78): 5
- Fatigue, All Grades, % ([4]; Safety Data Set N=78): (43.6) %
- Fatigue, Grade 1 ([4]; Safety Data Set N=78): 13
- Fatigue, Grade 2 ([4]; Safety Data Set N=78): 16
- Fatigue, Grade 3 ([4]; Safety Data Set N=78): 5
- Headache, All Grades, % ([4]; Safety Data Set N=78): (20.5) %
- Headache, Grade 1 ([4]; Safety Data Set N=78): 13
- Headache, Grade 2 ([4]; Safety Data Set N=78): 2
- Headache, Grade 3 ([4]; Safety Data Set N=78): 1
- Insomnia, All Grades, % ([4]; Safety Data Set N=78): (14.1) %
- Insomnia, Grade 1 ([4]; Safety Data Set N=78): 8
- Insomnia, Grade 2 ([4]; Safety Data Set N=78): 3
- Nausea, All Grades, % ([4]; Safety Data Set N=78): (30.8) %
- Nausea, Grade 1 ([4]; Safety Data Set N=78): 18
- Nausea, Grade 2 ([4]; Safety Data Set N=78): 4
- Nausea, Grade 3 ([4]; Safety Data Set N=78): 2
- Oedema peripheral, All Grades, % ([4]; Safety Data Set N=78): (12.8) %
- Oedema peripheral, Grade 1 ([4]; Safety Data Set N=78): 8
- Oedema peripheral, Grade 2 ([4]; Safety Data Set N=78): 2
- Pyrexia, All Grades, % ([4]; Safety Data Set N=78): (19.2) %
- Pyrexia, Grade 1 ([4]; Safety Data Set N=78): 9
- Pyrexia, Grade 2 ([4]; Safety Data Set N=78): 6
- Vomiting, All Grades, % ([4]; Safety Data Set N=78): (10.3) %
- Vomiting, Grade 1 ([4]; Safety Data Set N=78): 6
- Vomiting, Grade 2 ([4]; Safety Data Set N=78): 2
- Grade 3 and 4 reversible ALT elevations, % of subjects [4, 5]: 12%
- Grade 3 and 4 reversible ALT elevations, number of subjects [4, 5]: 9 subjects

From patent publication US9974792B2, “Methods for treating cancers” (Gilead Sciences, Inc., priority 2013, dated 2018)
